# Test results published in ChEMBL document CHEMBL3885881, “DrugMatrix”.
# Species: Rattus norvegicus
# Assay: DrugMatrix - Regimen: Daily Repeat
# Assay type: toxicity, organism-based, Sprague-Dawley
# Parameters: regimen Daily Repeat, gender Male, age 6-8 weeks
# Settings: in vivo, po, route oral GAVAGE, […]; for ABSOLUTE BASOPHIL / ABSOLUTE EOSINOPHIL / ABSOLUTE LYMPHOCYTE / ABSOLUTE MONOCYTE / ABSOLUTE SEGMENTED NEUTROPHIL / BASOPHIL / EOSINOPHIL / ERYTHROCYTE COUNT / HEMATOCRIT / HEMOGLOBIN / LEUKOCYTE COUNT / LYMPHOCYTE / MEAN CORPUSCULAR HEMOGLOBIN / MEAN CORPUSCULAR HEMOGLOBIN CONCENTRATION / MEAN CORPUSCULAR VOLUME / MONOCYTE / NEUTROPHIL / NUCLEATED RED BLOOD CELLS / PLATELET COUNT: tissue Blood; for ALANINE AMINOTRANSFERASE / ALBUMIN / ALKALINE PHOSPHATASE / ASPARTATE AMINOTRANSFERASE / BLOOD UREA NITROGEN / CARBON DIOXIDE / CHLORIDE / CHOLESTEROL / CREATINE PHOSPHOKINASE / CREATININE / GLUCOSE / LACTATE DEHYDROGENASE / LIPASE / PHOSPHORUS / POTASSIUM / SODIUM / TOTAL BILIRUBIN / TOTAL PROTEIN / URIC ACID: tissue Plasma
# [1] = 0 mg/kg, 72 h, dose level Control, time 3 day
# [2] = 0 mg/kg, 120 h, dose level Control, time 5 day
# [3] = 1 mg/kg, 72 h, dose level Low, time 3 day
compound,measurement,setting,value
CCOC(=O)C1=C(C)NC(C)=C(C(=O)OCC)C1c1ccccc1/C=C/C(=O)OC(C)(C)C [LACIDIPINE],ABSOLUTE BASOPHIL,[1],0 CELLS/uL
same,ABSOLUTE EOSINOPHIL,[1],13.67 CELLS/uL
same,ABSOLUTE LYMPHOCYTE,[1],10069.5 CELLS/uL
same,ABSOLUTE MONOCYTE,[1],50 CELLS/uL
same,ABSOLUTE SEGMENTED NEUTROPHIL,[1],516.83 CELLS/uL
same,BASOPHIL,[1],0%
same,EOSINOPHIL,[1],0.17%
same,ERYTHROCYTE COUNT,[1],5.44 x10E6/uL
same,HEMATOCRIT,[1],33.88%
same,HEMOGLOBIN,[1],13.23 G/DL
same,LEUKOCYTE COUNT,[1],10.65 x10E3/uL
same,LYMPHOCYTE,[1],94.67%
same,MEAN CORPUSCULAR HEMOGLOBIN,[1],24.37 pg
same,MEAN CORPUSCULAR HEMOGLOBIN CONCENTRATION,[1],39.05 G/DL
same,MEAN CORPUSCULAR VOLUME,[1],62.38 fL
same,MONOCYTE,[1],0.67%
same,NEUTROPHIL,[1],4.5%
same,NUCLEATED RED BLOOD CELLS,[1],0.33 /100WBC
same,PLATELET COUNT,[1],414.5 x10E3/uL
same,ALANINE AMINOTRANSFERASE,[1],72 u/L
same,ALBUMIN,[1],3.75 G/DL
same,ALKALINE PHOSPHATASE,[1],375 u/L
same,ASPARTATE AMINOTRANSFERASE,[1],87.5 u/L
same,BLOOD UREA NITROGEN,[1],14 mg/dL
same,CARBON DIOXIDE,[1],27.5 mmol/L
same,CHLORIDE,[1],95.83 MEQ/L
same,CHOLESTEROL,[1],68.5 mg/dL
same,CREATINE PHOSPHOKINASE,[1],284.33 u/L
same,CREATININE,[1],0.16 mg/dL
same,GLUCOSE,[1],156.67 mg/dL
same,LACTATE DEHYDROGENASE,[1],101.83 u/L
same,LIPASE,[1],9.67 u/L
same,PHOSPHORUS,[1],10.33 mg/dL
same,POTASSIUM,[1],5.22 MEQ/L
same,SODIUM,[1],137.67 MEQ/L
same,TOTAL BILIRUBIN,[1],0.13 mg/dL
same,TOTAL PROTEIN,[1],5.43 G/DL
same,URIC ACID,[1],0.8 mg/dL
same,ABSOLUTE BASOPHIL,[2],0 CELLS/uL
same,ABSOLUTE EOSINOPHIL,[2],20.67 CELLS/uL
same,ABSOLUTE LYMPHOCYTE,[2],11518.33 CELLS/uL
same,ABSOLUTE MONOCYTE,[2],47 CELLS/uL
same,ABSOLUTE SEGMENTED NEUTROPHIL,[2],614 CELLS/uL
same,BASOPHIL,[2],0%
same,EOSINOPHIL,[2],0.17%
same,ERYTHROCYTE COUNT,[2],5.61 x10E6/uL
same,HEMATOCRIT,[2],34.25%
same,HEMOGLOBIN,[2],13.38 G/DL
same,LEUKOCYTE COUNT,[2],12.2 x10E3/uL
same,LYMPHOCYTE,[2],94.33%
same,MEAN CORPUSCULAR HEMOGLOBIN,[2],23.83 pg
same,MEAN CORPUSCULAR HEMOGLOBIN CONCENTRATION,[2],39.08 G/DL
same,MEAN CORPUSCULAR VOLUME,[2],61.03 fL
same,MONOCYTE,[2],0.33%
same,NEUTROPHIL,[2],5.17%
same,NUCLEATED RED BLOOD CELLS,[2],0 /100WBC
same,PLATELET COUNT,[2],941.83 x10E3/uL
same,ALANINE AMINOTRANSFERASE,[2],68.83 u/L
same,ALBUMIN,[2],4.12 G/DL
same,ALKALINE PHOSPHATASE,[2],492.67 u/L
same,ASPARTATE AMINOTRANSFERASE,[2],83.33 u/L
same,BLOOD UREA NITROGEN,[2],14 mg/dL
same,CARBON DIOXIDE,[2],37 mmol/L
same,CHLORIDE,[2],98.67 MEQ/L
same,CHOLESTEROL,[2],56.5 mg/dL
same,CREATINE PHOSPHOKINASE,[2],167.33 u/L
same,CREATININE,[2],0.17 mg/dL
same,GLUCOSE,[2],157.5 mg/dL
same,LACTATE DEHYDROGENASE,[2],104.83 u/L
same,LIPASE,[2],10 u/L
same,PHOSPHORUS,[2],10.43 mg/dL
same,POTASSIUM,[2],5.46 MEQ/L
same,SODIUM,[2],143.87 MEQ/L
same,TOTAL BILIRUBIN,[2],0.17 mg/dL
same,TOTAL PROTEIN,[2],5.72 G/DL
same,URIC ACID,[2],0.85 mg/dL
same,ABSOLUTE BASOPHIL,[3],0 CELLS/uL
same,ABSOLUTE EOSINOPHIL,[3],98 CELLS/uL
same,ABSOLUTE LYMPHOCYTE,[3],10170.33 CELLS/uL
same,ABSOLUTE MONOCYTE,[3],49.33 CELLS/uL
same,ABSOLUTE SEGMENTED NEUTROPHIL,[3],815.67 CELLS/uL
same,BASOPHIL,[3],0%
same,EOSINOPHIL,[3],0.67%
same,ERYTHROCYTE COUNT,[3],5.08 x10E6/uL
same,HEMATOCRIT,[3],32.6%
same,HEMOGLOBIN,[3],13 G/DL
same,LEUKOCYTE COUNT,[3],11.13 x10E3/uL
same,LYMPHOCYTE,[3],91%
same,MEAN CORPUSCULAR HEMOGLOBIN,[3],25.63 pg
same,MEAN CORPUSCULAR HEMOGLOBIN CONCENTRATION,[3],39.9 G/DL
same,MEAN CORPUSCULAR VOLUME,[3],64.17 fL
same,MONOCYTE,[3],0.67%
same,NEUTROPHIL,[3],7.67%
same,NUCLEATED RED BLOOD CELLS,[3],0 /100WBC
same,PLATELET COUNT,[3],968 x10E3/uL
same,ALANINE AMINOTRANSFERASE,[3],76 u/L
same,ALBUMIN,[3],3.93 G/DL
same,ALKALINE PHOSPHATASE,[3],408.67 u/L
same,ASPARTATE AMINOTRANSFERASE,[3],89 u/L
same,BLOOD UREA NITROGEN,[3],12.33 mg/dL
same,CARBON DIOXIDE,[3],25 mmol/L
same,CHLORIDE,[3],96.67 MEQ/L
same,CHOLESTEROL,[3],78 mg/dL
same,CREATINE PHOSPHOKINASE,[3],356.67 u/L
same,CREATININE,[3],0.21 mg/dL
same,GLUCOSE,[3],154.33 mg/dL
same,LACTATE DEHYDROGENASE,[3],122.67 u/L
same,LIPASE,[3],12 u/L
same,PHOSPHORUS,[3],9.57 mg/dL
same,POTASSIUM,[3],5.36 MEQ/L
same,SODIUM,[3],139.33 MEQ/L
same,TOTAL BILIRUBIN,[3],0.13 mg/dL
same,TOTAL PROTEIN,[3],5.4 G/DL
same,URIC ACID,[3],0.5 mg/dL
